Earlier results, collected in patent US5013557A, “Taste masking compositions comprising spray dried microcapsules containing sucralfate and methods for preparing same” (Warner-Lambert Company, priority 1989, dated 1991).

Key:
[1] = sulfated disaccharide
[2] = pH values below about 3.5
peptic ulcers = conditions: in vivo
EGF = conditions: in vivo
pepsin = conditions: gel-like mass at ulcer site

For “alpha-D-glucopyranoside, beta-D-fructofuranosyl-, octakis-(hydrogen sulfate), aluminum complex [sucralfate]”, the “Absorption from the gastrointestinal tract” value [1] is given as “not absorbed from the gastrointestinal tract”, the “Affinity for ulcerated mucosa versus non-ulcerated mucosa” value (ulcerated mucosa) is given as “greater affinity for ulcerated mucosa than for non-ulcerated mucosa” and the “Coagulation / gel formation” value [2] is given as “coagulates to form a gel-like mass”. For the same substance, the “Effect of barrier on back diffusion of gastric acid” value (across the sucralfate protein barrier) was “blocks back diffusion of gastric acid”, the “Effect of barrier on diffusion of hydrogen ions” value (protein barrier bound to ulcer site) was “blocks diffusion of hydrogen ions” and the “Healing of peptic ulcers” value (peptic ulcers) was “accelerates the healing of peptic ulcers”. The “EGF remaining in the stomach” value (EGF) was “enable EGF to remain in the stomach at a high concentration”, the “Effect of protein barrier on bile salts and pepsin” value (pepsin) was “adsorbs bile salts and inhibits the potential ulcerogenic properties of pepsin” and the “Morphological and functional changes in the mucosa” value (mucosa) was “mucus release, changes in ion transport and increased release and synthesis of prostaglandins”.
